# Source: patent publication US20230348495A1, “A COMPOUND HAVING INHIBITORY ACTIVITY AGAINST KRAS G12D MUTATION” (TAIHO PHARMACEUTICAL CO., LTD., priority 2019, published 2023)
# Experiments:
# [1] = system: KRAS-G12D mutant cell line (A-427); assay: Growth inhibition activity on KRAS-G12D mutant cell line (A-427), CellTiter-Glo 3D; format: cell-based; details: Homo sapiens, 72 h, A-427 cells, 3-day culture with compound, read-out: A427 CTX IC50
# Protocol: Test Example 2: A measurement test of growth inhibition activity on KRAS-G12D mutant cell line (A-427) (in vitro) A-427 cells (ATCC, Cat #: HTB-53), which are a KRAS-G12D mutant human lung cancer cell line, were suspended in a 10% fetal bovine serum-containing E-MEM medium (manufactured by Fujifilm Wako Pure Chemical Corporation). The cell suspension was seeded into each well of a 384-well U bottom microplate and cultured in an incubator containing 5% CO2 gas at 37° C. for 1 day.
# The compound of the present invention was dissolved in DMSO, and the test compound was diluted with DMSO to give a concentration 500 times the final concentration. The solution of the test compound in DMSO was diluted with the medium used for suspending cells and added to each well of the cell-culture plate to give a DMSO final concentration of 0.2%, followed by culture in an incubator containing 5% CO2 gas at 37° C. for another 3 days. The cell count after a 3-day culture in the presence of the compound was measured using CellTiter-Glo 3D Reagent (manufactured by Promega Corporation).
# All wells were added with CellTiter-Glo 3D Reagent and mixed for 10 minutes. 30 minutes after mixing, luminescence was measured by a plate reader. The growth inhibition rate was calculated from the following equation, and the concentration of the test compound at which 50% inhibition was achieved (IC50 (μM)) was determined.
# Growth Inhibition Rate(%)=(C−T)/(C)×100
# T: the emission intensity in a well into which a test compound was added.
# C: the emission intensity in a well into which a test compound was not added.
# KRAS G12D = KRAS G12D (Homo sapiens (Human), UniProt P01116, G12D); assay: Inhibitory activity on KRAS G12D nucleotide (GDP-GTP) exchange reaction in vitro (SOS1-dependent, BODIPY FL GDP); format: biochemical; details: BODIPY FL GDP-bound KRAS G12D, compound 25° C. 1 hour, then SOS1 and GMPPNP 30 minutes
# KRAS G12D, sequence (P01116 other isoform, or with tags, fused parts or gaps G12D (already in the parent)): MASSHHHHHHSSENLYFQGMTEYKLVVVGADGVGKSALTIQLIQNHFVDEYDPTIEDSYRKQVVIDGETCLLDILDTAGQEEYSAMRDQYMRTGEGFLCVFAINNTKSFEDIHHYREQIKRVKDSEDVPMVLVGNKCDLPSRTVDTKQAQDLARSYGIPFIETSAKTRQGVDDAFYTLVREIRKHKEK
# Description: Test Example 1: Evaluation of inhibitory activity of compounds on KRAS G12D nucleotide (GDP-GTP) exchange reaction in vitro
# Recombinant KRAS G12D (conjugated N-terminus His6-tag, TEV protease cleavage site and KRAS G12D residues 1-169 (SEQ ID NO: 1), prepared by the method described as below) and cleaved recombinant SOS1 (residues 564-1049(SEQ ID NO: 2), prepared by the method as below) proteins were expressed in E. coli and purified by affinity chromatography.
# To prepare the recombinant KRAS G12D, the codon-optimized DNA sequence for the recombinant KRAS G12D (conjugated N-terminus His6-tag, TEV protease cleavage site and KRAS G12D residues 1-169 (SEQ ID NO: 3))was synthesized by GeneArt Technology (Life Technologies, Carlsbad, CA, US). The construct was subcloned into the expression vector pET28a and transformed into Escherichia coli BL21 (DE3) strains (Novagen, Madison, WI, US).
# The transformed strain was cultivated in 2 L Luria Broth medium with 25 μg/mL kanamycin at a temperature of 37° C. to a density of 0.6 (OD600), then induced for expression with […] IPTG and further cultivated for 4 h. The cell pellet was resuspended in ice-cold lysis buffer containing 50 mM Tris-HCl (pH 7.5), 200 mM NaCl, and 100 μM TCEP (tris(2-carboxyethyl)phosphine).
# After sonication, the disrupted debris was removed by centrifugation. The supernatant was applied on to Ni-NTA affinity gels, and the recombinant human KRAS (G12D) eluted fraction was collected. The buffer of the collected fraction was exchanged to the buffer containing 50 mM Tris-HCl (pH 7.5), 200 mM NaCl, 10% Glycerol, and 5 mM DTT by PD-10 column (GE-Healthcare, Chicago, IL, US).
# To prepare the cleaved recombinant SOS1, the codon optimized DNA sequences for the recombinant SOS1 (residues 564-1049 with a conjugated N-terminus His6-tag and TEV protease cleavage site (SEQ ID NO: 4)) was synthesized by GeneArt Technology (Life Technologies). The construct was subcloned into the expression vector pET28a and transformed into Escherichia coli BL21 (DE3) strains (Novagen, Madison, WI, USA).
# The transformed strain was cultivated in 2 L Terrific Broth medium with 25 μg/mL kanamycin at a temperature of 37° C. to a density of 0.8 (OD600), then shifted to a temperature of 16° C., induced for expression with […] IPTG, and further cultivated for 16 h. The cell pellet was resuspended in ice-cold lysis buffer containing 50 mM Tris-HCl (pH 7.5), 200 mM NaCl, and 100 μM TCEP.
# After sonication, the disrupted debris was removed by centrifugation. The supernatant was applied on to Ni-NTA affinity gels, and the recombinant human SOS1 eluted fraction was collected. Then, His6-tagged TEV protease was added to the collected fraction, dialyzed with the ice-cold lysis buffer for 16 h at a temperature of 4° C., and applied on to Ni-NTA affinity gels. The flow-through fraction containing the tag-cleavaged recombinant human SOS1 was collected. The buffer of the collected fraction was exchanged to the buffer containing 50 mM Tris-HCl (pH 7.5), 200 mM NaCl, 10% Glycerol, and 5 mM DTT by PD-10 column (GE-Healthcare).
# To prepare BODIPY FL (fluorescent dye) GDP-bound KRAS G12D protein, 50 μM KRAS G12D protein was incubated with 0.5 mM BODIPY FL GDP in a loading buffer (20 mM Tris-HCl (pH 7.5), 50 mM NaCl, 1 mM DTT and 2.5 mM EDTA) for 1 hour on ice. After the incubation, MgCl2 was added to a final concentration of 10 mM, followed by incubation at room temperature for 30 minutes.
# The mixture was allowed to pass through a NAP-5 column to remove free nucleotides and purified BODIPY FL GDP-bound KRAS G12D protein was used for compound evaluation.
# For the measurement of the inhibitory activity of compounds on GDP-GTP exchange rate of recombinant KRAS G12D, BODIPY FL GDP-bound KRAS G12D protein was incubated with various concentrations of compound in a reaction buffer (20 mM Tris-HCl (pH 7.5), 100 mM NaCl, 1 mM MgCl2, 2 mM DTT, 0.1% Tween 20) at 25° C. for 1 hour. […]
SMILES,IC50 [1],IC50 (KRAS G12D)
"O=C(c1cc(O)cc2cccc(I)c12)N1Cc2nc(OCC3(CN4CC[C@@H](F)C4)CC3)nc(N3CC4CCC(C3)N4)c2C1 [Example 12, (4-(3,8-diazabicyclo[3.2.1]octan-3-yl)-2-((1-(((R)-3-fluoropyrrolidin-1-yl)methyl)cyclopropyl)methoxy)-5,7-dihydro-6H-pyrrolo[3,4-d]pyrimidin-6-yl) (3-hydroxy-8-iodonaphthalen-1-yl)methanone]",8150 nM,4.4 nM
"O=C(c1cc(O)cc2cccc(I)c12)N1Cc2nc(OCC3(CN4CCOCC4)CC3)nc(N3CC4CCC(C3)N4)c2C1 [Example 13, (4-(3,8-diazabicyclo[3.2.1]octan-3-yl)-2-((1-(morpholinomethyl)cyclopropyl)methoxy)-5,7-dihydro-6H-pyrrolo[3,4-d]pyrimidin-6-yl) (3-hydroxy-8-iodonaphthalen-1-yl)methanone]",8550 nM,5.5 nM
"CN(C)CC1(COc2nc(N3CC4CCC(C3)N4)c3cc(Cl)c(-c4cc(O)cc5ccccc45)c(F)c3n2)CC1 [Example 14, 4-(4-(3,8-diazabicyclo[3.2.1]octan-3-yl)-6-chloro-2-((1-((dimethylamino)methyl)cyclopropyl)methoxy)-8-fluoroquinazolin-7-yl)naphthalen-2-ol]",1270 nM,8.9 nM
"CN(C)CC1(COc2nc(N3CC4CCC(C3)N4)c3ccc(-c4cc(O)cc5ccccc45)c(F)c3n2)CC1 [Example 15, 4-(4-(3,8-diazabicyclo[3.2.1]octan-3-yl)-2-((1-((dimethylamino)methyl)cyclopropyl)methoxy)-8-fluoroquinazolin-7-yl) naphthalen-2-ol]",1360 nM,4.7 nM
"CN1CCC[C@H]1COc1nc(N2CC3CCC(C2)N3)c2ccc(-c3cc(O)cc4ccccc34)c(F)c2n1 [Example 16, 4-(4-(3,8-diazabicyclo[3.2.1]octan-3-yl)-8-fluoro-2-(((S)-1-methylpyrrolidin-2-yl)methoxy)quinazolin-7-yl) naphthalen-2-ol]",2390 nM,10.2 nM
"CCc1cc2c(N3CC4CCC(C3)N4)nc(OCC3(CN(C)C)CC3)nc2c(F)c1-c1cc(O)cc2ccccc12 [Example 19, 4-(4-(3,8-diazabicyclo[3.2.1]octan-3-yl)-2-((1-((dimethylamino)methyl)cyclopropyl)methoxy)-6-ethyl-8-fluoroquinazolin-7-yl)naphthalen-2-ol]",1590 nM,7.1 nM
"CN(C)CC1(COc2nc3c(c(N4C[C@@H]5CC[C@H]4CN5)n2)CCN(c2cc(O)cc4cccc(Br)c24)C3)CC1 [Example 20, 4-(4-((1S,4S)-2,5-diazabicyclo[2.2.2]octan-2-yl)-2-((1-((dimethylamino)methyl)cyclopropyl)methoxy)-5,8-dihydropyrido[3,4-d]pyrimidin-7(6H)-yl)-5-bromonaphthalen-2-ol]",1950 nM,3 nM
"CN(C)CC1(COc2nc3c(c(N4CC5CCC(C4)N5)n2)CCN(c2cc(O)cc4cccc(Br)c24)C3)CC1(F)F (stereo not shown) [Example 21, 4-(4-(3,8-diazabicyclo[3.2.1]octan-3-yl)-2-((1-((dimethylamino)methyl)-2,2-difluorocyclopropyl)methoxy)-5,8-dihydropyrido[3,4-d]pyrimidin-7(6H)-yl)-5-bromonaphthalen-2-ol]",540 nM,9.7 nM
"CN(C)CC1(COc2nc3c(c(N4CC5CCC(C4)N5)n2)CCN(c2nc(N)cc4cccc(Br)c24)C3)CC1 [Example 22, 1-(4-(3,8-diazabicyclo[3.2.1]octan-3-yl)-2-((1-((dimethylamino)methyl)cyclopropyl)methoxy)-5,8-dihydropyrido[3,4-d]pyrimidin-7 (6H)-yl) -8-bromoisoquinolin-3-amine]",4090 nM,13 nM
"C#Cc1cccc2cc(O)cc(C3Cc4nc(OCC5(CN(C)C)CC5)nc(N5CC6CCC(C5)N6)c4CO3)c12 (stereo not shown) [Example 23, 4-(4-(3,8-diazabicyclo[3.2.1]octan-3-yl)-2-((1-((dimethylamino)methyl)cyclopropyl)methoxy)-7,8-dihydro-5H-pyrano[4,3-d]pyrimidin-7-yl)-5-ethynylnaphthalen-2-ol]",1470 nM,3 nM
"C#Cc1cccc2cccc(C3CCc4c(nc(OCC5(CN(C)C)CC5)nc4N4CC5CCC(C4)N5)C3)c12 (stereo not shown) [Example 24, 1-(1-(((4-(3,8-diazabicyclo[3.2.1]octan-3-yl)-7-(8-ethynylnaphthalen-1-yl)-5,6,7,8-tetrahydroquinazolin-2-yl)oxy)methyl)cyclopropyl)-N,N-dimethylmethanamine]",1220 nM,17 nM
"CN1C[C@H](F)C[C@H]1COc1nc2c(c(N3CC4CCC(C3)N4)n1)CCN(c1cc(O)cc3cccc(Br)c13)C2 [Example 27, 4-(4-(3,8-diazabicyclo[3.2.1]octan-3-yl)-2-(((2S,4R)-4-fluoro-1-methylpyrrolidin-2-yl)methoxy)-5,8-dihydropyrido[3,4-d]pyrimidin-7(6H)-yl)-5-bromonaphthalen-2-ol]",650 nM,18.5 nM
"Oc1cc(N2CCc3c(nc(OCC4(CN5CCOCC5)CC4)nc3N3C[C@@H]4CC[C@H]3CN4)C2)c2c(Br)cccc2c1 [Example 28, 4-(4-((1S,4S)-2,5-diazabicyclo[2.2.2]octan-2-yl)-2-((1-(morpholinomethyl)cyclopropyl)methoxy)-5,8-dihydropyrido[3,4-d]pyrimidin-7(6H)-yl)-5-bromonaphthalen-2-ol]",820 nM,3.6 nM
"CN(C)CC1(COc2nc3c(c(N4CC5CCC(C4)N5)n2)CCN(c2cccc4cccc(Br)c24)C3)CC1(F)F (stereo not shown) [Example 29, 1-(1-(((4-(3,8-diazabicyclo[3.2.1]octan-3-yl)-7-(8-bromonaphthalen-1-yl)-5,6,7,8-tetrahydropyrido[3,4-d]pyrimidin-2-yl)oxy)methyl)-2,2-difluorocyclopropyl)-N,N-dimethylmethanamine]",1260 nM,37.8 nM
